Target: GLP-1R (Homo sapiens, UniProt P43220)
Sequence (P43220 24-463, species assumed): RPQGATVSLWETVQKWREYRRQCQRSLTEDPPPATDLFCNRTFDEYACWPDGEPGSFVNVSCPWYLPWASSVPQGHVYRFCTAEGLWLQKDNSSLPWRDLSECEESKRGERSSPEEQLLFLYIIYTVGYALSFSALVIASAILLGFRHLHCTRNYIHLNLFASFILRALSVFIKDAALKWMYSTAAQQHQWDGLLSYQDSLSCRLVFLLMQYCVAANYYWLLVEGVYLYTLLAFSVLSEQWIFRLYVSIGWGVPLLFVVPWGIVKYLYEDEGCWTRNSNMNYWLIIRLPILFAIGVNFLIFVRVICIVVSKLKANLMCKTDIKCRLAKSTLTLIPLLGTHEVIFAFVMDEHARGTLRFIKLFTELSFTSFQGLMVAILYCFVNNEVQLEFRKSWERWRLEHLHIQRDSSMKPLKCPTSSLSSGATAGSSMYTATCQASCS

Substance: HGEGTFTSDLS(Kazido)QMEEEAVRLFIENWLKNGGPSSGAPSSGAPPPS [compound 1]
- % Change in FRET at 100 nM (100 nM, undigested): −12 ± 0.01%
- potency compared to unmodified Ex-4 (azido modification at K12): no significant reduction in potency

Source: US10716827B2 (priority 2015, dated 2020)
